Experimental data reported in patent USRE48461E1, “Modulation of androgen receptor expression” (Ionis Pharmaceuticals, Inc., priority 2012, dated 2021).
Oligonucleotides are written 5' to 3', each unit as a sugar letter and its base; * is a phosphorothioate linkage, no mark a phosphodiester; rarer units and linkages stand in square brackets, end groups in braces. Plain capitals give the bases only. k = constrained ethyl (cEt); [5mC] = 5-methylcytosine; d = 2'-deoxy (DNA)

Assays:
AR mRNA [1] = test: Antisense inhibition of human AR in HuVEC cells, single concentration (electroporation, qRT-PCR RTS3559); format: cell-based; settings: Table 20, 500 nM oligonucleotide, electroporation, approximately 24 hours, relative to untreated control
How it was run: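 HuVEC cells electroporated with antisense oligonucleotides at a single concentration. AR mRNA quantified by qRT-PCR using human primer-probe set RTS3559 and normalised to total RNA content by RIBOGREEN.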

AR mRNA [2] = test: Dose-dependent antisense inhibition of human AR in HuVEC cells (electroporation, qRT-PCR RTS3559, IC50); format: cell-based; settings: HuVEC, electroporation, approximately 16 hours
How it was run: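 HuVEC cells dosed with antisense oligonucleotides by electroporation and treated approximately 16 hours. AR mRNA quantified by real-time qPCR with primer probe set RTS3559 and normalised to total RNA by RIBOGREEN; IC50 from dose-response.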

| Substance | % inhibition (AR mRNA [1]) | percent inhibition of AR, 46.9 nM (AR mRNA [2]; Table 33) | percent inhibition of AR, 187.5 nM (AR mRNA [2]; Table 33) | percent inhibition of AR, 750.0 nM (AR mRNA [2]; Table 33) | percent inhibition of AR, 3000.0 nM (AR mRNA [2]; Table 33) | IC50 (AR mRNA [2]; Table 33) | percent inhibition of AR, 46.9 nM (AR mRNA [2]; Table 32) | percent inhibition of AR, 187.5 nM (AR mRNA [2]; Table 32) | percent inhibition of AR, 750.0 nM (AR mRNA [2]; Table 32) | percent inhibition of AR, 3000.0 nM (AR mRNA [2]; Table 32) | IC50 (AR mRNA [2]; Table 32) |
| --- | --- | --- | --- | --- | --- | --- | --- | --- | --- | --- | --- |
| 583833 (kT*kG*kT*dT*d[5mC]*d[5mC]*d[5mC]*d[5mC]*dT*dG*dG*dA*d[5mC]*kT*k[5mC]*kA; antisense) [compound 583833] | 37% | 26% | 43% | 70% | 74% | 260 nM |  |  |  |  |  |
| 583834 (kA*kG*k[5mC]*dT*dG*dT*dT*d[5mC]*d[5mC]*d[5mC]*d[5mC]*dT*dG*kG*kA*k[5mC]; antisense) [compound 583834] | 52% |  |  |  |  |  | 34% | 54% | 73% | 84% | 130 nM |
| 583835 (kG*kA*kA*dG*d[5mC]*dT*dG*dT*dT*d[5mC]*d[5mC]*d[5mC]*d[5mC]*kT*kG*kG; antisense) [compound 583835] | 44% |  |  |  |  |  | 20% | 55% | 74% | 88% | 190 nM |
| 583836 (k[5mC]*k[5mC]*kG*dA*dA*dG*d[5mC]*dT*dG*dT*dT*d[5mC]*d[5mC]*k[5mC]*k[5mC]*kT; antisense) [compound 583836] | 37% |  |  |  |  |  | 11% | 27% | 67% | 86% | 390 nM |
| 583843 (kG*kT*kA*d[5mC]*dA*dT*dG*d[5mC]*dA*dA*dT*d[5mC]*d[5mC]*k[5mC]*k[5mC]*k[5mC]; antisense) [compound 583843] | 35% | 22% | 40% | 67% | 85% | 300 nM |  |  |  |  |  |
| 583847 (kA*k[5mC]*kA*dG*d[5mC]*dG*dG*dG*dT*dG*dG*dA*dA*k[5mC]*kT*k[5mC]; antisense) [compound 583847] | 34% | 8% | 30% | 60% | 84% | 460 nM |  |  |  |  |  |
| 583850 (kG*kG*kA*d[5mC]*dG*d[5mC]*dA*d[5mC]*dA*dG*d[5mC]*dG*dG*kG*kT*kG; antisense) [compound 583850] | 38% |  |  |  |  |  | 9% | 21% | 54% | 78% | 600 nM |
| 583851 (kG*kT*kG*dG*dG*dA*d[5mC]*dG*d[5mC]*dA*d[5mC]*dA*dG*k[5mC]*kG*kG; antisense) [compound 583851] | 33% | 8% | 24% | 54% | 76% | 610 nM |  |  |  |  |  |
| 583853 (kT*kG*k[5mC]*dA*dT*dT*d[5mC]*dG*dG*d[5mC]*d[5mC]*dA*dA*kT*kG*kG; antisense) [compound 583853] | 33% | 24% | 51% | 70% | 80% | 210 nM |  |  |  |  |  |
| 583855 (k[5mC]*k[5mC]*kT*dT*dT*dG*d[5mC]*dA*dT*dT*d[5mC]*dG*dG*k[5mC]*k[5mC]*kA; antisense) [compound 583855] | 44% |  |  |  |  |  | 22% | 50% | 81% | 91% | 180 nM |
| 583856 (kA*kA*k[5mC]*d[5mC]*dT*dT*dT*dG*d[5mC]*dA*dT*dT*d[5mC]*kG*kG*k[5mC]; antisense) [compound 583856] | 45% |  |  |  |  |  | 31% | 55% | 74% | 89% | 140 nM |
| 583862 (kG*k[5mC]*kT*d[5mC]*dT*dT*dG*d[5mC]*d[5mC]*dT*dG*d[5mC]*dG*k[5mC]*kT*kG; antisense) [compound 583862] | 32% | 15% | 37% | 64% | 79% | 410 nM |  |  |  |  |  |
